Experimental data published in patent publication US20120122935A1, “COMPOSITIONS AND METHODS FOR TREATING NECROTIZING ENTEROCOLITIS” (NATIONWIDE CHILDREN'S HOSPITAL, INC., priority 2007, published 2012).
Marks after values point to notes of the source that are not given here.

Experiments:
newborn rat model of NEC = newborn rat model of NEC (formula feeding, hypoxia, hypothermia, LPS); format: in vivo; details: for Percent of Pups with NEC (any grade) / Percent of Pups with NEC Grade >2: one oral dose each day, n=8; for overall survival of pups exposed to the rat NEC model: nicotinamide treated vs control pups, FIG. 8
Excerpt: We have established valuable preclinical animal models that mimic intestinal injury in NEC. (Caplan M S, Hedlund E, Adler L, et al. Role of asphyxia and feeding in a neonatal rat model of necrotizing enterocolitis. Pediatr Pathol. November-December 1994; 14(6):1017-1028.) The model involves exposing neonatal rat pups to hypoxia, hypothermia, and formula feeding, leading to physiological stress and intestinal injury that pathologically is very similar to NEC in infants. Pups are delivered by cesarean section at E20 from timed pregnant dams. Pups are fed every 3 h with one skipped feed at 4 am (7 times/day) by oral gavage with 100 ul of a hypertonic formula (Similac and Esbilac). At 8 h post-delivery, pups are treated with 2 mg/kg LPS orally with feeding. Beginning on DOL 1, pups are fed every 3 h and subjected to hypoxic (2 min in 100% nitrogen) and hypothermal (10 min at 4° C.) stress twice daily immediately after feeds. Pups are sacrificed at DOL 4, or when discomfort warrants. Upon sacrifice, the distal ileum is collected in two sections. One section is immediately fixed in 10% neutral buffered formalin, and the other is snap-frozen in liquid nitrogen. Tissues are fixed for 48 h before histological processing and embedding in paraffin.
Each photomicrograph represents a different severity grading score of intestinal injury in this model as follows: (A)=Grade 0 or normal, (B)=Grade 1 or minimal intestinal damage, (C)=Grade 2 or minimal/modest intestinal damage, (D)=Grade 3 or moderate intestinal injury, (E) Grade 4 or severe intestinal injury. This system is based on the previously published intestinal injury grading system for the newborn rat intestinal model of NEC induced by formula feeding-hypoxia-hypothermia.

[1] = system: Human fetal intestinal epithelial cells (FHS741NT); test: in vitro model of immature intestinal wound restitution (scrape wound plus LPS); format: cell-based; details: 50 mg/ml nicotinamide after wounding and LPS administration, FIG. 14
Method: We have established cell culture conditions for neonatal human intestinal epithelial cells (IEC), which we have developed as a platform for investigating cellular responses and identifying potential protection strategies. Human fetal intestinal epithelial cells (FHS741NT), passage seven or less, were seeded (40,000 cells/ml) in poly-1-lysine coated 8-chamber slides (Labtek II; Nunc, Rochester, N.Y.) in media (DMEM containing 10% FBS, L-glutamine (2 mM), EGF (30 ng/ml), and insulin (10 μg/ml)) and allowed to reach confluence. A wound was created in the cell monolayer using a specific cell scraper device attached to a microscope. The microscope stage controls allow the creation of a reproducible straight wound in each slide chamber (width 500 μm). After wounding, media was replaced with media (DMEM with 10% FBS, L-glutamine (2 mM)) containing the appropriate treatment compound. […]
Digital images of wounds were captured using a 10× objective on an inverted microscope (Olympus, Melville, N.Y.) with an attached digital camera (Diagnostic Instruments, Sterling Heights, Mich.). […] For each subsequent image, the AOI was placed over the position of the original wound and the area occupied by cells was measured. […] Results were expressed as mean % closure where % closure=area of wound occupied by cells/area of original wound. […]

[2] = doses of 500 mg/kg or more in animal preparations; cited from earlier work

## NC(=O)c1cccnc1 [Nicotinamide, nicotinamide]
Newborn rat model of NEC; 50 mg/kg nicotinamide
  Percent of Pups with NEC (any grade): 12.5%*
  Percent of Pups with NEC Grade >2: 12.5%
Newborn rat model of NEC; 500 mg/kg nicotinamide
  Percent of Pups with NEC (any grade): 0%*
  Percent of Pups with NEC Grade >2: 0%
Newborn rat model of NEC
  overall survival of pups exposed to the rat NEC model: improved overall survival
Newborn rat model of NEC; listed as nicotinamide
  overall survival of pups exposed to the rat NEC model: improves survival
Newborn rat model of NEC; one oral dose daily at 500 mg/kg
  evidence of NEC Grade 2 or greater: no evidence of NEC Grade 2 or greater
Newborn rat model of NEC; one oral dose of 50 or 500 mg/kg each day
  protection against development of NEC / intestinal injury: strikingly protective against the development of any NEC
[1]
  wound healing (epithelial restitution): improves wound healing
[1]; listed as nicotinamide
  wound healing (epithelial restitution): improved wound healing
[2]
  reported toxicities: little or no reported toxicities
